In the test the test system is RAW 264.7 cells. In words: Quantitative cell-permeability of FITC-labeled aMTD- or rPeptide-fused CRA recombinant proteins (flow cytometry). In kind it is cell-based. Summed up:
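Uptake of fluorescently labeled, peptide-fused cargo proteins was quantified by flow cytometry (Guava, Millipore) and analyzed in FlowJo software. RAW 264.7 cells received 10 μM FITC-labeled protein for 1 hour at 37° C., were rinsed three times with cold PBS, and were trypsinized with 0.25% tripsin/EDTA for 20 minutes at 37° C. to remove bound protein before measurement. Permeability was expressed relative to reference proteins.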

Where [1] appears, read: cell-permeability relative to negative control rP38 (A type), aMTD-fused CRA recombinant protein, 10 μM FITC-labeled, 1 hour, 37° C., RAW 264.7 cells.
[2] abbreviates: cell-permeability relative to reference CPP MTD85 (C type), aMTD-fused CRA recombinant protein, 10 μM FITC-labeled, 1 hour, 37° C., RAW 264.7 cells.
The mark [3] stands for this setting: cell-permeability relative to reference CPP MTM12 (B type), aMTD-fused CRA recombinant protein, 10 μM FITC-labeled, 1 hour, 37° C., RAW 264.7 cells.
The mark [4] stands for this setting: cell-permeability of aMTD-fused CRA recombinant protein relative to negative control (A: rP38).
The mark [5] stands for this setting: cell-permeability of aMTD-fused CRA recombinant protein relative to reference CPP (B: MTM12).
The mark [6] stands for this setting: cell-permeability of aMTD-fused CRA recombinant protein relative to reference CPP (C: MTD85).

Take “707 (IVALAVLPAVAP; Amino acid Sequence of aMTD707) [compound 707]”: the “Relative Ratio (Fold) A” value under setting [1] amounted to 7.3 Fold. Further, the “Relative Ratio (Fold) C” value under setting [2] is recorded as 2.5 Fold. Further, under setting [3], the “Relative Ratio (Fold) B” value came out at 4.9 Fold.

Consider “724 (VAVLAVLPALAP; Amino acid Sequence of aMTD724) [compound 724]”, for which the “Relative Ratio (Fold) A” value under setting [4] is recorded as 47.5 Fold. Also, the “Relative Ratio (Fold) B” value under setting [5] is reported as 31.8 Fold. Further, the “Relative Ratio (Fold) C” value under setting [6] is given as 16.1 Fold.

Take “725 (IAVLAVAPAVLP; Amino acid Sequence of aMTD725) [compound 725]”: under setting [4], the “Relative Ratio (Fold) A” value is listed as 11.2 Fold. In addition, under setting [5], the “Relative Ratio (Fold) B” value stood at 7.5 Fold. The “Relative Ratio (Fold) C” value under setting [6] was determined as 3.8 Fold.

“726 (LAVAIIAPAVAP; Amino acid Sequence of aMTD726) [compound 726]”: the “Relative Ratio (Fold) A” value under setting [4] was determined as 16.5 Fold. The “Relative Ratio (Fold) B” value under setting [5] worked out at 11.0 Fold. For the same substance, the “Relative Ratio (Fold) C” value under setting [6] was 5.6 Fold.

On to “727 (VALAIALPAVLP; Amino acid Sequence of aMTD727) [compound 727]”, for which the “Relative Ratio (Fold) A” value under setting [4] was 54.7 Fold. In addition, the “Relative Ratio (Fold) B” value under setting [5] came to 36.7 Fold. Besides, the “Relative Ratio (Fold) C” value under setting [6] worked out at 18.5 Fold.

“743 (AIAIALVPVALP; Amino acid Sequence of aMTD743) [compound 743]”: the “Relative Ratio (Fold) A” value under setting [4] is given as 7.4 Fold. Further, the “Relative Ratio (Fold) B” value under setting [5] is listed as 4.9 Fold. Under setting [6], the “Relative Ratio (Fold) C” value is given as 2.5 Fold.

“744 (AAVVIVAPVALP; Amino acid Sequence of aMTD744) [compound 744]”: the “Relative Ratio (Fold) A” value under setting [4] is 11.0 Fold. Also, the “Relative Ratio (Fold) B” value under setting [5] turned out to be 7.3 Fold. For the same substance, under setting [6], the “Relative Ratio (Fold) C” value was determined as 3.7 Fold.

In the case of “746 (VAIIVVAPALAP; Amino acid Sequence of aMTD746) [compound 746]”, under setting [4], the “Relative Ratio (Fold) A” value stood at 7.6 Fold. For the same substance, under setting [5], the “Relative Ratio (Fold) B” value turned out to be 4.4 Fold. Also, the “Relative Ratio (Fold) C” value under setting [6] amounted to 2.6 Fold.

“763 (VAVLIAVPALAP; Amino acid Sequence of aMTD763) [compound 763]”: the “Relative Ratio (Fold) A” value under setting [4] was found to be 12.3 Fold. Under setting [5], the “Relative Ratio (Fold) B” value turned out to be 7.2 Fold. Moreover, the “Relative Ratio (Fold) C” value under setting [6] is 4.2 Fold.

With “764 (AVALAVLPAVVP; Amino acid Sequence of aMTD764) [compound 764]”, under setting [1], the “Relative Ratio (Fold) A” value stood at 5.0 Fold. In addition, the “Relative Ratio (Fold) C” value under setting [2] is given as 1.7 Fold. Besides, under setting [3], the “Relative Ratio (Fold) B” value is recorded as 3.4 Fold.

For the substance “765 (AVALAVVPAVLP; Amino acid Sequence of aMTD765) [compound 765]”, the “Relative Ratio (Fold) A” value under setting [1] turned out to be 3.8 Fold. For the same substance, the “Relative Ratio (Fold) C” value under setting [2] is 1.3 Fold. Moreover, the “Relative Ratio (Fold) B” value under setting [3] is 2.2 Fold.

With “766 (IVVIAVAPAVAP; Amino acid Sequence of aMTD766) [compound 766]”, under setting [4], the “Relative Ratio (Fold) A” value was found to be 12.9 Fold. Under setting [5], the “Relative Ratio (Fold) B” value stood at 8.6 Fold. The “Relative Ratio (Fold) C” value under setting [6] is 4.4 Fold.

As for “767 (IVVAAVVPALAP; Amino acid Sequence of aMTD767) [compound 767]”, under setting [4], the “Relative Ratio (Fold) A” value is 8.5 Fold. Also, the “Relative Ratio (Fold) B” value under setting [5] is reported as 5.0 Fold. Also, the “Relative Ratio (Fold) C” value under setting [6] was 2.9 Fold.

Turning to “783 (IVALVPAVAIAP; Amino acid Sequence of aMTD783) [compound 783]”, the “Relative Ratio (Fold) A” value under setting [1] is on record as 5.7 Fold. Under setting [2], the “Relative Ratio (Fold) C” value is on record as 1.9 Fold. Besides, under setting [3], the “Relative Ratio (Fold) B” value is 3.8 Fold.

With “784 (VAALPAVALVVP; Amino acid Sequence of aMTD784) [compound 784]”, the “Relative Ratio (Fold) A” value under setting [1] came out at 7.1 Fold. Under setting [2], the “Relative Ratio (Fold) C” value turned out to be 2.4 Fold. For the same substance, the “Relative Ratio (Fold) B” value under setting [3] worked out at 4.7 Fold.

Consider “786 (LVAIAPLAVLAP; Amino acid Sequence of aMTD786) [compound 786]”, for which the “Relative Ratio (Fold) A” value under setting [4] amounted to 21.2 Fold. The “Relative Ratio (Fold) B” value under setting [5] is recorded as 14.2 Fold. Also, the “Relative Ratio (Fold) C” value under setting [6] came to 7.2 Fold.

For “788 (AIAVAIAPVALP; Amino acid Sequence of aMTD788) [compound 788]”, under setting [4], the “Relative Ratio (Fold) A” value worked out at 9.8 Fold. Moreover, the “Relative Ratio (Fold) B” value under setting [5] was 6.6 Fold. The “Relative Ratio (Fold) C” value under setting [6] is on record as 3.3 Fold.

Take “803 (AIALAVPVLALP; Amino acid Sequence of aMTD803) [compound 803]”: under setting [4], the “Relative Ratio (Fold) A” value stood at 74.7 Fold. Moreover, under setting [5], the “Relative Ratio (Fold) B” value is listed as 50.0 Fold. The “Relative Ratio (Fold) C” value under setting [6] is 25.3 Fold.

For “805 (LVLIAAAPIALP; Amino acid Sequence of aMTD805) [compound 805]”, under setting [4], the “Relative Ratio (Fold) A” value is given as 22.3 Fold. Also, under setting [5], the “Relative Ratio (Fold) B” value came out at 14.9 Fold. Moreover, the “Relative Ratio (Fold) C” value under setting [6] amounted to 7.6 Fold.

Turning to “806 (LVALAVPAAVLP; Amino acid Sequence of aMTD806) [compound 806]”, under setting [4], the “Relative Ratio (Fold) A” value was determined as 36.7 Fold. In addition, the “Relative Ratio (Fold) B” value under setting [5] is reported as 24.6 Fold. In addition, the “Relative Ratio (Fold) C” value under setting [6] is reported as 12.4 Fold.

On to “807 (AVALAVPALVLP; Amino acid Sequence of aMTD807) [compound 807]”, for which the “Relative Ratio (Fold) A” value under setting [1] was 5.0 Fold. The “Relative Ratio (Fold) C” value under setting [2] is given as 1.7 Fold. For the same substance, under setting [3], the “Relative Ratio (Fold) B” value is reported as 3.3 Fold.

“809 (LIVLAAPALAAP; Amino acid Sequence of aMTD809) [compound 809]”: the “Relative Ratio (Fold) A” value under setting [1] turned out to be 7.0 Fold. Further, the “Relative Ratio (Fold) C” value under setting [2] came out at 2.4 Fold. The “Relative Ratio (Fold) B” value under setting [3] is given as 4.7 Fold.

In the case of “810 (VIVLAAPALAAP; Amino acid Sequence of aMTD810) [compound 810]”, the “Relative Ratio (Fold) A” value under setting [4] was 120.0 Fold. Further, under setting [5], the “Relative Ratio (Fold) B” value turned out to be 80.3 Fold. Also, under setting [6], the “Relative Ratio (Fold) C” value was 40.6 Fold.

With “811 (AVVLAVPALAVP; Amino acid Sequence of aMTD811) [compound 811]”, the “Relative Ratio (Fold) A” value under setting [4] came out at 46.5 Fold. For the same substance, the “Relative Ratio (Fold) B” value under setting [5] is 31.1 Fold. For the same substance, the “Relative Ratio (Fold) C” value under setting [6] turned out to be 15.7 Fold.

With “824 (LIIVAAAPAVAP; Amino acid Sequence of aMTD824) [compound 824]”, under setting [4], the “Relative Ratio (Fold) A” value was determined as 32.8 Fold. Further, the “Relative Ratio (Fold) B” value under setting [5] amounted to 21.9 Fold. Besides, the “Relative Ratio (Fold) C” value under setting [6] is given as 11.1 Fold.

As to “825 (IVAVIVAPAVAP; Amino acid Sequence of aMTD825) [compound 825]”, the “Relative Ratio (Fold) A” value under setting [4] stood at 69.7 Fold. The “Relative Ratio (Fold) B” value under setting [5] is 46.6 Fold. Moreover, under setting [6], the “Relative Ratio (Fold) C” value is 23.5 Fold.

“826 (LVALAAPIIAVP; Amino acid Sequence of aMTD826) [compound 826]”: the “Relative Ratio (Fold) A” value under setting [4] is 49.2 Fold. The “Relative Ratio (Fold) B” value under setting [5] is given as 32.9 Fold. Under setting [6], the “Relative Ratio (Fold) C” value is 18.6 Fold.

Regarding “827 (IAAVLAAPALVP; Amino acid Sequence of aMTD827) [compound 827]”, the “Relative Ratio (Fold) A” value under setting [4] came out at 43.0 Fold. Further, the “Relative Ratio (Fold) B” value under setting [5] is recorded as 28.8 Fold. The “Relative Ratio (Fold) C” value under setting [6] came to 14.6 Fold.

Consider “828 (IALLAAPIIAVP; Amino acid Sequence of aMTD828) [compound 828]”, for which the “Relative Ratio (Fold) A” value under setting [4] worked out at 36.8 Fold. The “Relative Ratio (Fold) B” value under setting [5] is on record as 24.6 Fold. For the same substance, the “Relative Ratio (Fold) C” value under setting [6] is 12.4 Fold.

Turning to “829 (AALALVAPVIVP; Amino acid Sequence of aMTD829) [compound 829]”, the “Relative Ratio (Fold) A” value under setting [4] was found to be 44.8 Fold. Further, under setting [5], the “Relative Ratio (Fold) B” value is 30.0 Fold. Under setting [6], the “Relative Ratio (Fold) C” value was determined as 15.2 Fold.

In the case of “830 (IALVAAPVALVP; Amino acid Sequence of aMTD830) [compound 830]”, the “Relative Ratio (Fold) A” value under setting [1] came out at 5.3 Fold. The “Relative Ratio (Fold) C” value under setting [2] is reported as 1.8 Fold. The “Relative Ratio (Fold) B” value under setting [3] was found to be 3.5 Fold.

Regarding “831 (IIVAVAPAAIVP; Amino acid Sequence of aMTD831) [compound 831]”, the “Relative Ratio (Fold) A” value under setting [4] came to 46.3 Fold. In addition, under setting [5], the “Relative Ratio (Fold) B” value was 31.0 Fold. Also, the “Relative Ratio (Fold) C” value under setting [6] is on record as 15.7 Fold.

With “832 (AVAAIVPVIVAP; Amino acid Sequence of aMTD832) [compound 832]”, under setting [1], the “Relative Ratio (Fold) A” value worked out at 4.1 Fold. Under setting [2], the “Relative Ratio (Fold) C” value worked out at 1.4 Fold. The “Relative Ratio (Fold) B” value under setting [3] stood at 2.7 Fold.

“843 (AVLVLVAPAAAP; Amino acid Sequence of aMTD843) [compound 843]”: under setting [4], the “Relative Ratio (Fold) A” value amounted to 26.4 Fold. Further, the “Relative Ratio (Fold) B” value under setting [5] worked out at 17.7 Fold. Besides, the “Relative Ratio (Fold) C” value under setting [6] is given as 8.9 Fold.

In the case of “844 (VVALLAPLIAAP; Amino acid Sequence of aMTD844) [compound 844]”, the “Relative Ratio (Fold) A” value under setting [4] turned out to be 11.2 Fold. Further, under setting [5], the “Relative Ratio (Fold) B” value stood at 7.5 Fold. Moreover, the “Relative Ratio (Fold) C” value under setting [6] came out at 3.8 Fold.

For the substance “845 (AAVVIAPLLAVP; Amino acid Sequence of aMTD845) [compound 845]”, the “Relative Ratio (Fold) A” value under setting [4] is 35.8 Fold. For the same substance, the “Relative Ratio (Fold) B” value under setting [5] was determined as 24.0 Fold. Also, the “Relative Ratio (Fold) C” value under setting [6] is recorded as 12.1 Fold.

“846 (IAVAVAAPLLVP; Amino acid Sequence of aMTD846) [compound 846]”: under setting [4], the “Relative Ratio (Fold) A” value is given as 11.7 Fold. Moreover, the “Relative Ratio (Fold) B” value under setting [5] turned out to be 6.8 Fold. Further, the “Relative Ratio (Fold) C” value under setting [6] is given as 4.0 Fold.

The record behind these values is US10385103B2, “Cell-permeable (ICP)-SOCS3 recombinant protein and uses thereof” (CELLIVERY THERAPEUTICS, INC., priority 2014, dated 2019).
